# Laboratory results reported in patent publication US9255122B2, “Cholate and deoxycholate-based amphiphiles for membrane protein manipulation” (Wisconsin Alumni Research Foundation, priority 2013, dated 2016).
# Legend:
# LHI-RC complex [1] = tested on: T1, LHI-RC complex; assay: Solubilization of LHI-RC complex from R. capsulatus intracytoplasmic membranes (pellet/supernatant absorbance spectra); design: species or system Rhodobacter capsulatus; settings: for SY (%) Solubilization yield of LHI-RC complex from the membrane: 2×CMC for DPA-2, CAO, CAO-1, 10×CMC for other new agents, 50×CMC for DDM and LDAO, 32° C., 30 min
# T1 construct: made in house; host or cells: Rhodobacter capsulatus U43[pUHTM86Bgl], intracytoplasmic membranes
# Procedure: (§1) These two reagents were chosen as control agents for the assay. For the superassembly solubilization, the intracytoplasmic R. capsulatus membranes enriched in LHI-RC complex were treated with 10×CMC individual new agents except DPA-2; DPA-2 was tested at 2×CMC based on its high CMC value. On the other hand, conventional detergents (LDAO and DDM) were used at 50×CMC due to the small CMC value in terms of wt. %. The solubilized protein portion and insolubilized part containing cellular debris and insolubilized membranes were separated via ultracentrifugation and isolated as the supernatant and pellet, respectively. The absorption spectra of these two portions were taken to assess detergents efficacy on the protein solubilization and stabilization.
# (§2) The solubilization and purification of the R. capsulatus superassembly were conducted according to the published protocol (Chae et al., ChemBioChem 2008, 9, 1706-1709). First, specialized photosynthetic membranes called intracytoplasmic membranes were obtained from an engineered strain of Rhodobacter (R.) capsulatus, U43[pUHTM86Bgl], lacking the light-harvesting complex II (LHII). The solubilization experiment began by thawing and homogenizing frozen aliquots of R. capsulatus membranes at room temperature. The solution was then incubated with mild agitation at 32° C. for 30 min. Subsequently, the solution was further incubated for 30 min after adding individual detergents (2×CMC for DPA-2, CAO and CAO-1, 10×CMC for DPA-1, […], DCAO and DCAO-2, 50×CMC for DDM and LDAO) into 1.0 mL solutions of R. capsulatus superassembly. The solution was then subjected to ultracentrifugation at 310,000 g at 4° C. for 30 min to remove membrane debris.
# (§3) The spectra of solubilized supernatant and solubilized pellet were taken in a range from 650 nm to 950 nm after being homogenized. For the purification of the protein, detergent-solubilized samples were transferred into a new 1.7 mL microcentrifuge tube containing Ni-NTA resin (Qiagen, Inc.; Valencia, Calif.; pre-equilibriated and stored in an equal volume of buffer containing 10 mM Tris, pH 7.8, and 100 mM NaCl). Following one-hour incubation at 4° C. for protein binding, the resins were collected and washed twice with 0.5 mL of binding buffer (a pH 7.8 Tris solution containing DDM at 1×CMC). Purified protein solution were collected by eluting three times with 0.20 mL elution buffer solutions containing 1 M imidazole (otherwise, this buffer was identical to binding buffer; the pH of each solution was readjusted to pH=7.8) and diluted with 0.4 mL of the binding buffer to reach 1.0 mL solution. UV-Vis spectra of the superassembly purified in individual detergents were then taken to assess the stability of the protein.
# LHI-RC complex [2] = tested on: T1, LHI-RC complex; assay: Long-term stability of LHI-RC complexes, absorbance ratio A875/A680 over 20-day incubation at room temperature; design: species or system Rhodobacter capsulatus; settings: for long-term stability of superassembly (A875/A680), in words: room temperature; for native conformation retained by detergent-purified proteins: after 20 day-incubation at room temperature
# Procedure: The favorable properties of CAO and DCAO in terms of membrane protein stabilization prompted further evaluation of these reagents' ability to stabilize protein superassemblies as a function of time. DDM-purified samples were diluted with solutions containing CAO or LDAO. […] Protein stability was monitored over time at room temperature by measuring absorbance ratios (A875/A680) (absorption at 680 nm arises from the oxidation of bacteriochlorophyll dissociated from LHI upon denaturation). […] Of note, DCAO was not evaluated in this long-term stability of the superassembly due to its high tendency to form a hydrogel at this high concentration.
# R. capsulatus superassembly was purified in DDM according to the protocol described above. The DDM-purified sample was then diluted to the solutions containing individual detergents (CAO, CAO-1, DCAO, DCAO-2, DDM and LDAO). The dilution makes DDM concentration reached far below its CMC and the final individual detergent concentration at CMC+0.04 wt % or CMC+1.0 wt %. The spectra of individual detergents-solubilized LHI-RC complexes were taken in a range of 650 nm to 950 nm at regular intervals over 20 days during the incubation at room temperature. Protein integrity in each sample was assessed via changes in absorbance ratio (A875/A680) with time.
# Similar criteria and protocols were used to judge the ability of amphiphiles to maintain solubilized and purified superassembly for extended periods. In this case, UV Vis-nearIR spectra were recorded at regular intervals. The degradation of the material could be monitored with the A875/A680 absorbance ratio, which decreased with time and sample integrity as the dominant 875 nm absorption of intact LHI disappeared and a 680 nm band appeared, indicating the presence of unbound, oxidized cofactors.
# [3] = Critical micelle concentration (CMC) estimated with hydrophobic fluorescent dye diphenylhexatriene (DPH); assay type: physicochemical
# Source text: The “Critical Micelle Concentration” (CMC) refers to the concentration of a detergent (e.g., an amphiphile as described herein) in an aqueous solution at which the detergent molecules self-assemble into micelles. Below the CMC, detergents are mostly monomeric; above the CMC, micelle concentration increases linearly with detergent concentration. The CMC is dependent upon many factors and is detergent-specific. The CMC of a detergent can be determined experimentally by measuring the solubilization of a water-insoluble dye or fluorophore while varying the concentration of detergent. A CMC may also be determined by measuring the diminution of the surface tension of an aqueous solution as a function of detergent concentration (CMCs determined by either method correlate with each other). The CMC is determined by extrapolating the plot of solubilization vs. concentration (or surface tension vs. concentration) in the two linear regions above and below the CMC. Where the two lines intersect is the CMC.
# The Critical Micelle Concentrations (CMCs) of compounds of the invention can be determined by standard techniques known to those of skill in the art. For example, CMCs of CAO and DCAO can be determined by monitoring uptake of a fluorescent dye (e.g., a dye such as 1,6-diphenylhexatriene) with increasing detergent concentration, monitored by fluorescence spectroscopy.
# LHI-RC complex [4] = tested on: T1, LHI-RC complex; assay: Integrity of detergent-solubilized and Ni-NTA-purified LHI-RC complexes by UV-Vis absorption spectra; design: species or system Rhodobacter capsulatus; settings: purified protein eluted at 1×CMC detergent
# Source text: The presence of various types of cofactors such as bacteriochlorophyll and carotenoids embedded in the complexes, thereby providing a well-featured UV-Vis absorption spectrum, facilitates the assessment of the protein integrity for a set of detergents via optical spectrophotometry. The native conformation of the protein is represented by a very strong peak at 875 nm in its absorption spectrum, while the intact RC but denatured LHI, or denatured LHI and RC, produce rather intense peaks at ˜800 nm and ˜760 nm, respectively.
# as §1
# For the purification, the detergent-solubilized protein samples were subjected to a metal affinity column chromatography and eluted with the elution buffer containing 1M imidazole and 1×CMC individual detergents. The UV-Visible spectra of the resulting protein samples were taken to investigate the integrity of detergent-purified LHI-RC complexes.
# as §2, §3
# [5] = Water solubility and hydrogel formation of amphiphiles; assay type: physicochemical
# Procedure: The amphiphiles prepared, except LDAO and DCAO, are water-soluble at up to 10 wt. %. […] DCAO was initially soluble, at approximately 1.0 wt. %, but tends to form a hydrogel over time at concentrations of greater than about 0.3 wt. %. Critical micelle concentration (CMC) values were estimated by using a hydrophobic fluorescent dye, diphenyhexatriene (DPH) (see Laible et al., Biochemistry 2003, 42, 1718-1730).
# The CMC values were determined for CAO-1 (˜7.2 mM; ˜0.38 wt. %) and DCAO-2 (˜1.1 mM; ˜0.056 wt. %), which are similar to those of their parent compounds, CAO and DCAO, respectively (see Table 2.1 above). […] All of these cholate and deoxycholate-based agents preserved the native conformation of the superassembly during protein solubilization and purification processes.
# [6] = at CMC+0.04 wt. % and CMC+1.0 wt. %, 20 days
# [7] = estimated with DPH, Example 2, Table 2.1
# T1 sequence (P11847 whole entry): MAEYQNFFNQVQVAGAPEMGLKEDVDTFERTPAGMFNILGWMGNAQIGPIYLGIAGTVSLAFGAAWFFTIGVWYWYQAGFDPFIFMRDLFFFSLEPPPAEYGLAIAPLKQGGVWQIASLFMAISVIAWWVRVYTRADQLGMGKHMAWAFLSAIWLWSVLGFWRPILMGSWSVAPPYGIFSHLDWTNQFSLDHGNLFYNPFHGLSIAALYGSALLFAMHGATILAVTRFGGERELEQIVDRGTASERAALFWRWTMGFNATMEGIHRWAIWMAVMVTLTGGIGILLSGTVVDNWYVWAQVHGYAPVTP
# T1 sequence (P19057 whole entry, further chain): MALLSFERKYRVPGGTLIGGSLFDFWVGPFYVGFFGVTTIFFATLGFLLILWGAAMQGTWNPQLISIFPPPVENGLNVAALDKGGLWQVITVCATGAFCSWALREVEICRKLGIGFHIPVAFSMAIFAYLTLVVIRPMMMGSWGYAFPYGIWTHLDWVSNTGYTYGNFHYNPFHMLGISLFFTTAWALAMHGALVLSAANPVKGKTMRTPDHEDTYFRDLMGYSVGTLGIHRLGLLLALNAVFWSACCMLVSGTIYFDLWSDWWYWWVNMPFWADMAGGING
# T1 sequence (P19056 whole entry, further chain): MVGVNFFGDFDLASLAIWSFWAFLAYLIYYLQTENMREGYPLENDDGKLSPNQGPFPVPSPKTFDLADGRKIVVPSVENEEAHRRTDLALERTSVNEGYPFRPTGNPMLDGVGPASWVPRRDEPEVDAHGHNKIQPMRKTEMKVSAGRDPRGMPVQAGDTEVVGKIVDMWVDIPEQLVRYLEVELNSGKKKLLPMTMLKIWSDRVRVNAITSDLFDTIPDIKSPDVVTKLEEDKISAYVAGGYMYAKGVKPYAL
# T1 sequence (P02948 whole entry, further chain): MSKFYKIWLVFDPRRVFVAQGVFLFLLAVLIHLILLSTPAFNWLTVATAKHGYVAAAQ
# T1 sequence (P02950 whole entry, further chain): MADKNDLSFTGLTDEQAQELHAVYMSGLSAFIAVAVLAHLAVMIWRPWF
SMILES,SY (%) Solubilization yield of LHI-RC complex from the membrane (LHI-RC complex [1]),"CMC [3, 7]","CMC (wt. %) [3, 7]",native structure of LHI-RC complexes after solubilization and purification (in words) (LHI-RC complex [4]),"CMC ([3]; Example 3, Table 3-2)","CMC (%) ([3]; Example 3, Table 3-2)",further results
CC(CCC(=O)N(C)CCC[N+](C)(C)[O-])C1CCC2C3C(O)CC4CC(O)CCC4(C)C3CC(O)C12C (stereo not drawn) [CAO-1],~20%,~7.2 mM,~0.36 wt. %,–,–,–,"long-term stability of superassembly (A875/A680), in words (LHI-RC complex [2]; [6]): clearly superior to DDM"
CC(CCC(=O)NCCC[N+](C)(C)[O-])C1CCC2C3C(O)CC4CC(O)CCC4(C)C3CC(O)C12C (stereo not drawn) [CAO],~30%,~8.3 mM,~0.42 wt. %,fully retained as effectively as DDM,7.1 mM,0.36%,"long-term stability of superassembly (A875/A680), in words (LHI-RC complex [2]; [6]): clearly superior to DDM; long-term stability of superassembly (A875/A680), in words (LHI-RC complex [2]; detergent at CMC+0.04 wt. %): more stable than DDM-solubilized protein; long-term stability of superassembly (A875/A680), in words (LHI-RC complex [2]; detergent at CMC+1.0 wt. %): efficacy difference between CAO and DDM was more prominent"
"C[C@H](CCC(=O)NCCC[N+](C)(C)CCCS(=O)(=O)[O-])[C@H]1CC[C@H]2[C@@H]3[C@H](O)C[C@@H]4C[C@H](O)CC[C@]4(C)[C@H]3C[C@H](O)[C@]12C [CHAPS, 3-[(3-cholamidopropyl)-dimethylammonio]-1-propanesulfonate, reference compound]",~50%,~8.0 mM,–,without structural degradation,8 mM,0.49%,native conformation retained by detergent-purified proteins (LHI-RC complex [2]): ~65%
"C[C@H](CCC(=O)NCCC[N+](C)(C)CC(O)CS(=O)(=O)[O-])[C@H]1CC[C@H]2[C@@H]3[C@H](O)C[C@@H]4C[C@H](O)CC[C@]4(C)[C@H]3C[C@H](O)[C@]12C (stereo partly drawn) [CHAPSO, 3-[(3-cholamidopropyl)-dimethylammonio]-2-hydroxy-1-propanesulfonate, reference compound]",~50%,–,–,–,8 mM,0.5%,native conformation retained by detergent-purified proteins (LHI-RC complex [2]): ~65%
CC(CCC(=O)NCCC[N+](C)(C)[O-])C1CCC2C3CCC4CC(O)CCC4(C)C3CC(O)C12C (stereo not drawn) [DCAO],~70%,~1.3 mM,~0.064 wt. %,fully retained as effectively as DDM,1.0 mM,0.049%,"long-term stability of superassembly (A875/A680), in words (LHI-RC complex [2]; detergent at CMC+0.04 wt. %): more stable than DDM-solubilized protein; hydrogel formation (in words) [5]: did not form a hydrogel; concentration at which a hydrogel tends to form over time ([5]; in water): greater than 0.3 wt. %; water solubility ([5]; water-soluble at up to the stated concentration): approximately 1.0 wt. %; CMC fold lower than that of CHAPS or CHAPSO [3]: approximately 8 fold"
"CCCCCCCCCCCCO[C@@H]1O[C@H](CO)[C@@H](O[C@H]2O[C@H](CO)[C@@H](O)[C@H](O)[C@H]2O)[C@H](O)[C@H]1O [DDM, n-dodecyl-β-D-maltoside, reference compound]",~70%,~0.17 mM,~0.0087 wt. %,–,–,–,–
"C[N+](C)([O-])CCCNC(=O)CC1(C2CCCC2)CCCCCC1 [DPA-1, 3-(2-(1-cyclopentylcycloheptyl)acetamido)-N,N-dimethylpropan-1-amine oxide]",~100%,~13 mM,~0.24 wt. %,A similar trend was observed,–,–,–
"C[N+](C)([O-])CCCNC(=O)CC(c1ccccc1)c1ccccc1 [DPA-2, reference compound]",~15%,~78 mM,~2.5 wt. %,–,–,–,–
"C[N+](C)([O-])CCCNC(=O)CC(C1CCCCC1)C1CCCCC1 [DPA-3, reference compound]",~95%,~4.9 mM,~0.17 wt. %,protein degradation observed for DPA-3 was much less than that observed for DPA-1,–,–,–
"CCCCCCCCCCCC[N+](C)(C)[O-] [LDAO, lauryldimethylamine oxide, reference compound]",~100%,~1.0 mM,~0.023 wt. %,native protein conformation mostly destroyed,–,–,extraction/solubilization of LHI-RC complexes (in words) (LHI-RC complex [1]): extracted the complexes almost quantitatively; water solubility (in words) [5]: insoluble in water
